# Experiments:
# [1] = test system: Wistar rats, open-field locomotor activity; experiment: Open-field locomotor test for nonspecific behavioral effects; assay type: in vivo; conditions: 3 mg/kg i.p., 1-hr pretreatment
# Method: Locomotor activity: testing for nonspecific behavioral effects. After completion of the Compound 1 dose response curve, potential nonspecific effects of Compound 1 (3 mg/kg) were assessed using the open-field locomotor test. This test evaluates potential effects on motor activity and anxiety-like behavior. Rats were administered Compound 1 (0 or 3 mg/kg, i.p.) in a randomized counterbalanced order. After a 1-hr pretreatment period (matching the pretreatment period used in the drinking study), rats were placed in the open-field apparatus and locomotor activity was computer-monitored for 1-hr. To assess anxiety-like behavior, activity in the center zone of the open field was analyzed.
# Open-field locomotor test for nonspecific behavioral effects. Pharmacological manipulations have the potential to alter rodent behavior by producing nonspecific effects on motor ability, learning and memory, or emotional processing. The open field test is a widely used method for assessing all these potential nonspecific effects in a single test. In this method, rodents are injected with a test compound and placed in an open-field apparatus that records ambulatory behavior in real time via computer analysis of photobeam breaks (FIG. 3A). […] Similarly, Compound 1 (3 mg/kg) had no effect on summary measures of total ambulatory distance (FIG. 3C) or total ambulatory time (FIG. 3D) as compared to vehicle control.
# [2] = test system: operant alcohol self-administration in Wistar rats; experiment: Operant alcohol self-administration (FR-1), acute treatment; assay type: in vivo; design: alcohol reinforced lever press responses: dose or concentration left out as unconfirmed; conditions: 1-h pretreatment
# From the text: Twelve operant conditioning chambers designed for rats (30.5 cm×24.1 cm×21.0 cm; Med Associates, Georgia, VT) were located within sound-attenuating cubicles in a devoted room to limit extraneous potential impact by extraneous environmental variables. Each cubicle was equipped with an exhaust fan that provided ventilation and masked external sounds. The chambers were electronically interfaced to a Microsoft Windows based computer that was programmed using investigator developed software to control sessions and record number of lever press responses at 100-ms intervals.
# The right wall of each chamber contained a liquid receptacle and a response lever (Med Associates) that was termed the active lever. Lever press responses on the active lever activated a syringe pump (PHM-100, Med Associates) that delivered 0.1 ml of alcohol solution (ethanol 8% v/v+sucrose 2% w/v) into the receptacle over a 1.66-s period. Head entries into the liquid receptacle were recorded when an infrared photo beam was broken. A stimulus light located above the response lever was illuminated during pump activation. Lever presses during reinforcer delivery were recorded but produced no programmed consequence. […] Behavior on this lever serves as a control for motor disruptions and other nonspecific effects of test compounds. […]
# Testing the efficacy of Compound 1 to reduce the reinforcing, or rewarding, effects of alcohol. Following establishment of stable baseline self-administration behavior, effects of pre-session treatment with the novel mGluR5 negative allosteric modulator Compound 1 (0, 0.3, 1, 3, and 10 mg/kg, IP) were evaluated on operant alcohol self-administration behavior (n=12 rats). […] Parameters of operant performance were measured, including total lever press responses, number of headpokes into the liquid receptacle, and rate of operant responding, which is a direct measure of positive reinforcement function. […]
compound,measurement,setting,value
"N#Cc1cc(Cl)cc(-c2cc(-c3ccc(F)cn3)ncn2)c1 [Compound 1, 3-chloro-5-[6-(5-fluoropyridin-2-yl)pyrimidin-4-yl]benzonitrile]",motor activity in the center zone of the open field (anxiety-like behavior),[1],normal avoidance of the center zone
same,total ambulatory distance,[1],no effect
same,total ambulatory time,[1],no effect
same,initial exploration or habituation to the novel open-field environment,[1]; 1-hr test,no effect
same,"EtOH reinforced responses vs vehicle, multiple comparisons",[2]; 10 mg/kg IP,reduced EtOH reinforced responses
same,alcohol reinforced lever press responses,"[2]; IP (so in the source), 15-min test sessions",reduced alcohol reinforced lever press responses in a dose-dependent manner
